# In patent publication US9789181B2, “PAN-DR binding polypeptides and uses thereof” (Epimmune Inc., priority 2009, dated 2017):
# pIC50: −log10 of the molar value. Where no end group is shown, it is not given here.
# Experiments:
# HLA DRB4 *0101 = HLA DRB4 *0101 (Homo sapiens, UniProt P01903+P13762, G164S); assay: IC50nM to purified HLA | DRB4 *0101
# Protocol: (§1) Table printed on a drawing sheet, FIG. 1 (contd.)
# Head of the field: IC50nM to purified HLA | DRB4 *0101
# (§2) First copying reader's note: Continued from an earlier sheet of FIG. 1; decimal commas as printed, analog names encode substituted residues and positions, and some values are printed in italics or bold and some SEQ ID NOs underlined without a legend on this sheet.
# Where the first naming reader finds the target: head: IC50nM to purified HLA | DRB4 *0101
# HLA DRB1 *0301 = HLA DRB1 *0301 (Homo sapiens, UniProt P01903+P01911, A100K/A102G/A103R/A169T/F55Y/I96L/K41T/L162R/M171V/P40S/Q125H/Q178H/Q39Y/R42S/S66N/T106N/T262R/W38E/Y61H); assay: IC50nM to purified HLA | DRB1 *0301
# Protocol: as §1
# Head of the field: IC50nM to purified HLA | DRB1 *0301
# as §2
# Where the first naming reader finds the target: head: IC50nM to purified HLA | DRB1 *0301
# HLA DRB1 *0404 = HLA DRB1 *0404 (Homo sapiens, UniProt P01903+P01911, A100R/A169T/F76Y/I96L/K127E/L162R/M171V/N62H/P40V/Q125Y/R42H/S133A/S149N/S66Y/V209L/W38E); assay: IC50nM to purified HLA | DRB1 *0404
# Protocol: as §1
# Head of the field: IC50nM to purified HLA | DRB1 *0404
# as §2
# Where the first naming reader finds the target: head: IC50nM to purified HLA | DRB1 *0404
# HLA DRB1 *0901 = HLA DRB1 *0901 (Homo sapiens, UniProt P01903+P01911, A100R/A103E/D57H/D86V/F55Y/F60I/F76Y/I96F/K127E/L162R/M171V/P40D/Q125H/Q99R/R33Q/R42F/S133A/S66N/T210M/V115G/W38K/Y107V/Y59G/Y89S); assay: IC50nM to purified HLA | DRB1 *0901
# Protocol: as §1
# Head of the field: IC50nM to purified HLA | DRB1 *0901
# as §2
# Where the first naming reader finds the target: head: IC50nM to purified HLA | DRB1 *0901
# HLA DRB1 *0101 = HLA DRB1 *0101 (Homo sapiens, UniProt P01903+P01911, A100R/D57E/F55L/F60I/F76Y/I96L/L162R/M171V/P40L/Q125E/R42F/V115G/Y59C); assay: IC50nM to purified HLA | DRB1 *0101
# Protocol: as §1
# Head of the field: IC50nM to purified HLA | DRB1 *0101
# as §2
# Where the first naming reader finds the target: head: IC50nM to purified HLA | DRB1 *0101
# HLA DRB5 *0101 = HLA DRB5 *0101 (Homo sapiens, UniProt P01903+Q30154); assay: IC50nM to purified HLA | DRB5 *0101
# Protocol: as §1
# Head of the field: IC50nM to purified HLA | DRB5 *0101
# as §2
# Where the first naming reader finds the target: head: IC50nM to purified HLA | DRB5 *0101
# HLA DRB1 *1501 = HLA DRB1 *1501 (Homo sapiens, UniProt P01903+P01911); assay: IC50nM to purified HLA | DRB1 *1501
# Protocol: as §1
# Head of the field: IC50nM to purified HLA | DRB1 *1501
# as §2
# Where the first naming reader finds the target: head: IC50nM to purified HLA | DRB1 *1501
# HLA DRB1 *0701 = HLA DRB1 *0701 (Homo sapiens, UniProt P01903+P01911, A100R/A102G/A103Q/D57E/D86V/E43K/F76Y/K127E/L162R/M171V/P40G/Q125H/Q99D/R33Q/R42Y/R54Q/S133A/S66F/T210M/V115G/Y107V/Y59L/Y89S); assay: IC50nM to purified HLA | DRB1 *0701
# Protocol: as §1
# Head of the field: IC50nM to purified HLA | DRB1 *0701
# as §2
# Where the first naming reader finds the target: head: IC50nM to purified HLA | DRB1 *0701
# HLA DRB1 *0405 = HLA DRB1 *0405 (Homo sapiens, UniProt P01903+P01911, A100R/A169T/D86S/F76Y/I96L/K127E/L162R/M171V/N62H/P40V/Q125Y/R42H/S133A/S149N/S66Y/V115G/V209L/W38E); assay: IC50nM to purified HLA | DRB1 *0405
# Protocol: as §1
# Head of the field: IC50nM to purified HLA | DRB1 *0405
# as §2
# Where the first naming reader finds the target: head: IC50nM to purified HLA | DRB1 *0405
# HLA DRB1 *1101 = HLA DRB1 *1101 (Homo sapiens, UniProt P01903+P01911, A100R/A169T/A87E/I96F/K41T/L162R/M171V/P40S/Q125H/Q178H/Q39Y/Q99D/R42S/S66Y/T262R/V115G/W38E); assay: IC50nM to purified HLA | DRB1 *1101
# Protocol: as §1
# Head of the field: IC50nM to purified HLA | DRB1 *1101
# as §2
# Where the first naming reader finds the target: head: IC50nM to purified HLA | DRB1 *1101
# HLA DRB1 *0401 = HLA DRB1 *0401 (Homo sapiens, UniProt P01903+P01911, A100K/A169T/F76Y/I96L/K127E/L162R/M171V/N62H/P40V/Q125Y/R42H/S133A/S149N/S66Y/V115G/V209L/W38E); assay: IC50nM to purified HLA | DRB1 *0401
# Protocol: as §1
# Head of the field: IC50nM to purified HLA | DRB1 *0401
# as §2
# Where the first naming reader finds the target: head: IC50nM to purified HLA | DRB1 *0401
# HLA DRB1 *1302 = HLA DRB1 *1302 (Homo sapiens, UniProt P01903+P01911, A100E/A169T/K41T/L162R/M171V/P40S/Q125H/Q178H/Q39Y/Q99D/R42S/S66N/T262R/V115G/W38E/Y61H); assay: IC50nM to purified HLA | DRB1 *1302
# Protocol: as §1
# Head of the field: IC50nM to purified HLA | DRB1 *1302
# as §2
# Where the first naming reader finds the target: head: IC50nM to purified HLA | DRB1 *1302
# HLA DRB1 *0802 = HLA DRB1 *0802 (Homo sapiens, UniProt P01903+P01911, A100R/A103L/A169T/F76Y/H45Y/I96F/K41T/L162R/M171V/P40S/Q125H/Q178H/Q39Y/Q99D/R218S/R42G/S66Y/V115G/W38E); assay: IC50nM to purified HLA | DRB1 *0802
# Protocol: as §1
# Head of the field: IC50nM to purified HLA | DRB1 *0802
# as §2
# Where the first naming reader finds the target: head: IC50nM to purified HLA | DRB1 *0802
# Sequence of HLA DRB1 *1101 (P01903 26-254 limits assumed, other chains not shown): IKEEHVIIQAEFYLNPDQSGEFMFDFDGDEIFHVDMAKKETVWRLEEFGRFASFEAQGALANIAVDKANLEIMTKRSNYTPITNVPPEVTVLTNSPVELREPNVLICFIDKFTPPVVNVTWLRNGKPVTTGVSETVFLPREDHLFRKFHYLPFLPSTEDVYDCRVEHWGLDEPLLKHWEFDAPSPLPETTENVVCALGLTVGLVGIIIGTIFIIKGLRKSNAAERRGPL
# Sequence of HLA DRB1 *1302 (P01903 26-254 limits assumed, other chains not shown): as above
# Sequence of HLA DRB4 *0101 (P01903 26-254 limits assumed): as the sequence (P01903 26-254 limits assumed, other chains not shown) above
# Sequence of HLA DRB4 *0101 (P13762 whole entry G164S): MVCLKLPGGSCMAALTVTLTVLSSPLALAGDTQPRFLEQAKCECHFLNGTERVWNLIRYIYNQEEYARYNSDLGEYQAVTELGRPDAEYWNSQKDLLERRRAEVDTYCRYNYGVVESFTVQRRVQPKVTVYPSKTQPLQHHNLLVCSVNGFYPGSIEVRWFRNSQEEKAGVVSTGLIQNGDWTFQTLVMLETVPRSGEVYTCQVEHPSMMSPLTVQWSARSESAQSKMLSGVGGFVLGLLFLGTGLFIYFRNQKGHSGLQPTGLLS
# Sequence of HLA DRB1 *0301 (P01903 26-254 limits assumed, other chains not shown): as the sequence (P01903 26-254 limits assumed, other chains not shown) above
Sequence,pIC50 (HLA DRB4 *0101),pIC50 (HLA DRB1 *0301),pIC50 (HLA DRB1 *0404),pIC50 (HLA DRB1 *0901),pIC50 (HLA DRB1 *0101),pIC50 (HLA DRB5 *0101),pIC50 (HLA DRB1 *1501),pIC50 (HLA DRB1 *0701),pIC50 (HLA DRB1 *0405),pIC50 (HLA DRB1 *1101),pIC50 (HLA DRB1 *0401),pIC50 (HLA DRB1 *1302),pIC50 (HLA DRB1 *0802)
AAAIFVAAFTLHAAA [SEQ ID NO: 71],6.93,6.35,8.57,7.10,7.92,7.68,8.01,6.69,7.85,7.92,–,–,–
AAAIFVAANTLHAAA [SEQ ID NO: 72],6.96,–,8.35,7.12,8.14,–,7.77,6.96,–,–,8.57,7.19,–
AAAIFVAAWTLKAAA [SEQ ID NO: 68],6.91,6.41,8.80,–,8.40,–,8.14,7.12,–,–,–,–,7.85
AAAIFVAAYTLHAAA [SEQ ID NO: 70],6.46,6.52,–,–,8.24,–,8.49,7.02,–,7.72,–,5.71,8.03
AAANFVAAFTLHAAA [SEQ ID NO: 53],6.95,6.60,–,7.39,8.33,–,–,7.28,7.92,–,8.80,–,7.92
AAANFVAAFTLKADA [SEQ ID NO: 57],–,–,7.92,–,8.00,–,7.62,–,7.89,7.13,8.37,–,–
AAANFVAAFTLKAEA [SEQ ID NO: 61],6.31,5.81,–,–,8.10,–,–,–,7.92,–,–,5.80,7.85
AAANFVAANTLHAAA [SEQ ID NO: 54],5.96,–,–,–,8.21,7.37,6.94,7.08,–,–,8.47,7.36,–
AAANFVAANTLKADA [SEQ ID NO: 58],5.20,–,–,6.96,–,–,6.53,–,–,–,8.01,6.57,–
AAANFVAANTLKAEA [SEQ ID NO: 62],6.02,5.76,7.96,–,–,7.47,–,6.97,–,7.11,–,–,–
AAANFVAAWTLKADA [SEQ ID NO: 55],–,–,8.01,–,8.12,7.62,–,7.28,–,7.39,8.26,–,7.46
AAANFVAAWTLKAEA [SEQ ID NO: 59],6.66,6.14,–,–,8.74,7.82,7.51,–,8.42,–,–,5.98,7.72
AAANFVAAYTLKADA [SEQ ID NO: 56],–,5.82,7.82,7.36,–,–,7.92,–,–,7.00,8.20,6.09,7.66
AAANFVAAYTLKAEA [SEQ ID NO: 60],6.14,5.97,8.21,7.37,–,–,7.96,–,–,–,7.89,6.23,7.68
AAAQFVAAFTLHAAA [SEQ ID NO: 66],7.01,–,8.36,7.51,–,–,–,–,8.11,–,8.57,–,7.89
AAAQFVAANTLHAAA [SEQ ID NO: 67],–,6.50,–,–,–,–,7.11,7.12,–,7.36,8.48,–,7.62
AAAQFVAAWTLHAAA [SEQ ID NO: 64],–,6.73,–,–,–,–,7.89,–,7.89,–,–,5.95,–
AAAQFVAAWTLKAAA [SEQ ID NO: 63],6.59,6.57,–,–,8.29,8.28,7.77,–,7.68,7.92,8.80,–,–
AAAQFVAAYTLHAAA [SEQ ID NO: 65],6.37,6.82,–,7.68,8.38,7.62,8.44,–,7.66,7.77,8.66,6.15,8.29
